Source: patent US20260374756A1, “HETEROCYCLIC COMPOUNDS AS INHIBITORS OF MONOACYLGLYCEROL LIPASE (MAGL)” (Hoffmann-La Roche Inc., priority 2022, published 2026)

What follows are compounds tested against T1, hMAGL (Homo sapiens, UniProt Q99685) (assay: 2-AG assay: MAGL inhibition, hydrolysis of 2-arachidonoylglycerol to arachidonic acid followed by mass spectrometry).
T1 sequence (Q99685 1-303): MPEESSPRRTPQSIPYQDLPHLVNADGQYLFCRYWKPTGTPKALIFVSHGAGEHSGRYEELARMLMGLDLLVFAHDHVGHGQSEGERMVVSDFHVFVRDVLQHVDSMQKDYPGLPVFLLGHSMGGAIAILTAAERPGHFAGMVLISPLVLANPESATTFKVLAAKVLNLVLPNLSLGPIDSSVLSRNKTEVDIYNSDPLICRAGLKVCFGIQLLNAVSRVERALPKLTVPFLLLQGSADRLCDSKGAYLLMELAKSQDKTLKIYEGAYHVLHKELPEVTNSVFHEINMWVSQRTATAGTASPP
Assay type: biochemical
In short: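 Read-out is LC-MS/MS of arachidonic acid released from 2-arachidonoylglycerol (8 μM final), normalised to d8-arachidonic acid internal standard after acetonitrile quench. Enzyme […] and compound were pre-mixed 15 min, then reacted 30 min, both at RT, in Tris/EDTA buffer with 0.01% Tween-20 and 2.5% DMSO.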

| SMILES | IC50 [nM] |
| --- | --- |
| Cc1cc(C(F)(F)F)n(CC2CC3(C2)CN(C(=O)N2CC4(CC(n5cnc(C6CC6)n5)C4)C2)C3)n1 [Example 72, [6-(3-cyclopropyl-1,2,4-triazol-1-yl)-2-azaspiro[3.3]heptan-2-yl]-[6-[[3-methyl-5-(trifluoromethyl)pyrazol-1-yl]methyl]-2-azaspiro[3.3]heptan-2-yl]methanone] | 3.09 |
| Cn1ncc(OC2CC3(C2)CN(C(=O)N2CC4(CC(n5cnc(C(F)(F)F)n5)C4)C2)C3)c1C(F)(F)F [Example 246, [6-[1-methyl-5-(trifluoromethyl)pyrazol-4-yl]oxy-2-azaspiro[3.3]heptan-2-yl]-[6-[3-(trifluoromethyl)-1,2,4-triazol-1-yl]-2-azaspiro[3.3]heptan-2-yl]methanone] | 3.98 |
| Cc1cc(C2CC2)nn1CC1CC2(C1)CN(C(=O)N1CC3(CC(n4cnc(C5(O)CC5)n4)C3)C1)C2 [Example 136, [6-[(3-cyclopropyl-5-methyl-pyrazol-1-yl)methyl]-2-azaspiro[3.3]heptan-2-yl]-[6-[3-(1-hydroxycyclopropyl)-1,2,4-triazol-1-yl]-2-azaspiro[3.3]heptan-2-yl]methanone] | 5.53 |
| CC(C)(C)c1csc(CN2CC3(C2)CN(C(=O)N2CC4(CC(n5cnc(C6(O)CC6)n5)C4)C2)C3)n1 [Example 199, [6-[(4-tert-butylthiazol-2-yl)methyl]-2,6-diazaspiro[3.3]heptan-2-yl]-[6-[3-(1-hydroxycyclopropyl)-1,2,4-triazol-1-yl]-2-azaspiro[3.3]heptan-2-yl]methanone] | 6.7 |
| O=C(N1CC2(CC(n3cnc(C(F)(F)F)n3)C2)C1)N1CC2(CN(Cc3cc(C(F)(F)F)[nH]n3)C2)C1 [Example 241, [6-[[5-(trifluoromethyl)-1H-pyrazol-3-yl]methyl]-2,6-diazaspiro[3.3]heptan-2-yl]-[6-[3-(trifluoromethyl)-1,2,4-triazol-1-yl]-2-azaspiro[3.3]heptan-2-yl]methanone] | 18.7 |
| O=C(N1CC2(CC(n3cnc(C4CC4)n3)C2)C1)N1CC2(CN(Cc3nccn3CC(F)(F)F)C2)C1 [Example 234, [6-(3-cyclopropyl-1,2,4-triazol-1-yl)-2-azaspiro[3.3]heptan-2-yl]-[6-[[1-(2,2,2-trifluoroethyl)imidazol-2-yl]methyl]-2,6-diazaspiro[3.3]heptan-2-yl]methanone] | 41.3 |
| O=C(N1CC2(CC(Cc3cc(C(F)(F)F)nn3CC(F)(F)F)C2)C1)N1CC2(CC(n3cnc(C(F)(F)F)n3)C2)C1 [Example 140, [6-[[2-(2,2,2-trifluoroethyl)-5-(trifluoromethyl)pyrazol-3-yl]methyl]-2-azaspiro[3.3]heptan-2-yl]-[6-[3-(trifluoromethyl)-1,2,4-triazol-1-yl]-2-azaspiro[3.3]heptan-2-yl]methanone] | 0.47 |
| Cn1ncc(C(F)(F)F)c1CC1CC2(C1)CN(C(=O)N1CC3(CC(n4cnc(C5(O)CC5)n4)C3)C1)C2 [Example 3] | 2.21 |
| O=C(N1CC2(CC(n3cnc(C(F)(F)F)n3)C2)C1)N1CC2(CN(Cc3nc(C(F)(F)F)cs3)C2)C1 [Example 51] | 17 |
| O=C(N1CC2(CCN(Cc3cc(C(F)(F)F)sn3)CC2)C1)N1CC2(CC(n3cnc(C4CC4)n3)C2)C1 [Example 47, [6-(3-cyclopropyl-1,2,4-triazol-1-yl)-2-azaspiro[3.3]heptan-2-yl]-[7-[[5-(trifluoromethyl)isothiazol-3-yl]methyl]-2,7-diazaspiro[3.5]nonan-2-yl]methanone] | 1.86 |
| O=C(N1CC2(CC(n3cnc(C4CC4)n3)C2)C1)N1CC2(CN(Cc3cc(C(F)(F)F)ns3)C2)C1 [Example 154, [6-(3-cyclopropyl-1,2,4-triazol-1-yl)-2-azaspiro[3.3]heptan-2-yl]-[6-[[3-(trifluoromethyl)isothiazol-5-yl]methyl]-2,6-diazaspiro[3.3]heptan-2-yl]methanone] | 2.64 |
| Cc1cc(C(F)F)nn1CC1CC2(C1)CN(C(=O)N1CC3(CC(n4cnc(C5CC5)n4)C3)C1)C2 [Example 95, [6-(3-cyclopropyl-1,2,4-triazol-1-yl)-2-azaspiro[3.3]heptan-2-yl]-[6-[[3-(difluoromethyl)-5-methyl-pyrazol-1-yl]methyl]-2-azaspiro[3.3]heptan-2-yl]methanone] | 0.2 |
| O=C(N1CC2(CC(n3cnc(C4CC4)n3)C2)C1)N1CC2(CN(Cc3ccnn3CC(F)(F)F)C2)C1 [Example 223, [6-(3-cyclopropyl-1,2,4-triazol-1-yl)-2-azaspiro[3.3]heptan-2-yl]-[6-[[2-(2,2,2-trifluoroethyl)pyrazol-3-yl]methyl]-2,6-diazaspiro[3.3]heptan-2-yl]methanone] | 69.2 |
| O=C(N1CC2(CC(n3cnc(C4(O)CC4)n3)C2)C1)N1CC2(CN(Cc3snnc3C3CCC3)C2)C1 [Example 78, [6-[(4-cyclobutylthiadiazol-5-yl)methyl]-2,6-diazaspiro[3.3]heptan-2-yl]-[6-[3-(1-hydroxycyclopropyl)-1,2,4-triazol-1-yl]-2-azaspiro[3.3]heptan-2-yl]methanone] | 22.9 |
| O=C(N1CC2(CC(n3cnc(C4CC4)n3)C2)C1)N1CC2(CN(Cc3ncoc3C(F)(F)F)C2)C1 [Example 221, [6-(3-cyclopropyl-1,2,4-triazol-1-yl)-2-azaspiro[3.3]heptan-2-yl]-[6-[[5-(trifluoromethyl)oxazol-4-yl]methyl]-2,6-diazaspiro[3.3]heptan-2-yl]methanone] | 32.6 |
| Cn1ncc(C(F)(F)F)c1CN1CCC2(CC1)CN(C(=O)N1CC3(CC(n4cnc(C5CC5)n4)C3)C1)C2 [Example 66, [6-(3-cyclopropyl-1,2,4-triazol-1-yl)-2-azaspiro[3.3]heptan-2-yl]-[7-[[2-methyl-4-(trifluoromethyl)pyrazol-3-yl]methyl]-2,7-diazaspiro[3.5]nonan-2-yl]methanone] | 0.41 |

Now from value to compound:

| IC50 [nM] | SMILES |
| --- | --- |
| 95.7 | O=C(N1CC2(CC(n3cnc(C4CC4)n3)C2)C1)N1CC2(CN(Cc3ccnn3CC(F)F)C2)C1 [Example 261, [6-(3-cyclopropyl-1,2,4-triazol-1-yl)-2-azaspiro[3.3]heptan-2-yl]-[6-[[2-(2,2-difluoroethyl)pyrazol-3-yl]methyl]-2,6-diazaspiro[3.3]heptan-2-yl]methanone] |
| 38.6 | CC(C)(C)c1c[nH]c(CN2CC3(C2)CN(C(=O)N2CC4(CC(n5cnc(C6CC6)n5)C4)C2)C3)n1 [Example 253, [6-[(4-tert-butyl-1H-imidazol-2-yl)methyl]-2,6-diazaspiro[3.3]heptan-2-yl]-[6-(3-cyclopropyl-1,2,4-triazol-1-yl)-2-azaspiro[3.3]heptan-2-yl]methanone] |
| 2.62 | O=C(N1CC2(CC(Cc3cc(C(F)(F)F)n[nH]3)C2)C1)N1CC2(CC(n3cnc(C(F)F)n3)C2)C1 [Example 343, [6-[3-(difluoromethyl)-1,2,4-triazol-1-yl]-2-azaspiro[3.3]heptan-2-yl]-[6-[[3-(trifluoromethyl)-1H-pyrazol-5-yl]methyl]-2-azaspiro[3.3]heptan-2-yl]methanone] |
| 14.8 | Cn1nc(C2CC2)cc1CN1CC2(C1)CN(C(=O)N1CC3(CC(n4cnc(C(F)(F)F)n4)C3)C1)C2 [Example 271] |
| 9.94 | O=C(N1CC2(CC(n3cnc(C4CC4)n3)C2)C1)N1CC2(CN(Cc3nc(CC4CC4)no3)C2)C1 [Example 265, [6-[[3-(cyclopropylmethyl)-1,2,4-oxadiazol-5-yl]methyl]-2,6-diazaspiro[3.3]heptan-2-yl]-[6-(3-cyclopropyl-1,2,4-triazol-1-yl)-2-azaspiro[3.3]heptan-2-yl]methanone] |
| 636 | Cn1cnc(C#N)c1CN1CC2(C1)CN(C(=O)N1CC3(CC(n4cnc(C(F)(F)F)n4)C3)C1)C2 [Example 280, 1-methyl-5-[[2-[6-[3-(trifluoromethyl)-1,2,4-triazol-1-yl]-2-azaspiro[3.3]heptane-2-carbonyl]-2,6-diazaspiro[3.3]heptan-6-yl]methyl]imidazole-4-carbonitrile] |
| 5.29 | O=C(N1CC2(CC(n3cnc(C4CC4)n3)C2)C1)N1CC2(CN(Cc3cc(C4CCC4)[nH]n3)C2)C1 [Example 274, [6-[(5-cyclobutyl-1H-pyrazol-3-yl)methyl]-2,6-diazaspiro[3.3]heptan-2-yl]-[6-(3-cyclopropyl-1,2,4-triazol-1-yl)-2-azaspiro[3.3]heptan-2-yl]methanone] |
| 1630 | O=C(N1CC2(CC(n3cnc(C4CC4)n3)C2)C1)N1CC2(CN(Cc3cc[nH]n3)C2)C1 [Example 257, [6-(3-cyclopropyl-1,2,4-triazol-1-yl)-2-azaspiro[3.3]heptan-2-yl]-[6-(1H-pyrazol-3-ylmethyl)-2,6-diazaspiro[3.3]heptan-2-yl]methanone] |
| 23.1 | O=C(N1CC2(CC(Cn3ncnc3C(F)(F)F)C2)C1)N1CC2(CC(n3cnc(C4(O)CC4)n3)C2)C1 [Example 325, [6-[3-(1-hydroxycyclopropyl)-1,2,4-triazol-1-yl]-2-azaspiro[3.3]heptan-2-yl]-[6-[[5-(trifluoromethyl)-1,2,4-triazol-1-yl]methyl]-2-azaspiro[3.3]heptan-2-yl]methanone] |
| 8.92 | CC(F)(F)c1noc(CN2CC3(C2)CN(C(=O)N2CC4(CC(n5cnc(C6CC6)n5)C4)C2)C3)n1 [Example 259, [6-(3-cyclopropyl-1,2,4-triazol-1-yl)-2-azaspiro[3.3]heptan-2-yl]-[6-[[3-(1,1-difluoroethyl)-1,2,4-oxadiazol-5-yl]methyl]-2,6-diazaspiro[3.3]heptan-2-yl]methanone] |
